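Following 48 hours of exposure in 96-well plates, responses at five concentrations were used to interpolate endpoints linearly. Here, GI50 denotes the concentration required for 50% inhibition of growth.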 Activity calls are given as the source filed them. Rule as the data show it: active = GI50 up to about 1.1 µM and inactive = higher.
Assays:
Assay in all cases: NCI anticancer screen, dose series, 48 h
SNB-78 = tested on: SNB-78
OVCAR-5 = tested on: OVCAR-5
OVCAR-3 = tested on: OVCAR-3
DLD-1 = tested on: DLD-1
XF498 = tested on: XF498
SNB-75 = tested on: SNB-75
SR = tested on: SR
UACC-62 = tested on: UACC-62
DMS-273 = tested on: DMS-273
CCRF-CEM = tested on: CCRF-CEM
HCC 2998 = tested on: HCC 2998
LXFL 529 = tested on: LXFL 529
NCI-H226 = tested on: NCI-H226
SW-620 = tested on: SW-620
UACC-257 = tested on: UACC-257
SK-OV-3 = tested on: SK-OV-3
SK-MEL-28 = tested on: SK-MEL-28
HOP-18 = tested on: HOP-18
A498 = tested on: A498
COLO 205 = tested on: COLO 205
HCT-15 = tested on: HCT-15
HT-29 = tested on: HT-29
A549 = tested on: A549
NCI-H460 = tested on: NCI-H460
HOP-92 = tested on: HOP-92
M14 = tested on: M14
UO-31 = tested on: UO-31
K562 = tested on: K562
KM12 = tested on: KM12
EKVX = tested on: EKVX
SK-MEL-2 = tested on: SK-MEL-2
NCI-H23 = tested on: NCI-H23
HL-60 = tested on: HL-60
LOX IMVI = tested on: LOX IMVI
CAKI-1 = tested on: CAKI-1
SF-539 = tested on: SF-539
SK-MEL-5 = tested on: SK-MEL-5
Malme-3M = tested on: Malme-3M
SF-268 = tested on: SF-268
MOLT-4 = tested on: MOLT-4
KM-20L2 = tested on: KM-20L2
SNB-19 = tested on: SNB-19
786-0 = tested on: 786-0
U-251 = tested on: U-251
RPMI-8226 = tested on: RPMI-8226
IGROV-1 = tested on: IGROV-1
HCT-116 = tested on: HCT-116
SF-295 = tested on: SF-295
RXF 393 = tested on: RXF 393
DMS-114 = tested on: DMS-114
HOP-62 = tested on: HOP-62
M19-MEL = tested on: M19-MEL
NCI-H522 = tested on: NCI-H522
ACHN = tested on: ACHN
TK-10 = tested on: TK-10
SN12C = tested on: SN12C
OVCAR-4 = tested on: OVCAR-4
OVCAR-8 = tested on: OVCAR-8

`COc1cc2c(cc1OC)C(Cc1ccc(Oc3cc(CC4c5cc(OC)c(OC)cc5CCN4C)ccc3O)cc1)N(C)CC2` (stereo not drawn) was tested, and the GI50 (SNB-78) was 28.5 µM (inactive), the GI50 (OVCAR-5) was > 100 µM (inactive) and the GI50 (OVCAR-3) was 19.5 µM (inactive). For the same compound, the GI50 (DLD-1) was 18.7 µM (inactive), the GI50 (XF498) was 18.3 µM (inactive) and the GI50 (SNB-75) was 14.8 µM (inactive). For the same compound, the GI50 (SR) was 1.79 µM (inactive), the GI50 (UACC-62) was 17.4 µM (inactive) and the GI50 (DMS-273) was 21.7 µM (inactive). The GI50 (CCRF-CEM) was 12.7 µM (inactive), the GI50 (HCC 2998) was 14.3 µM (inactive) and the GI50 (LXFL 529) was 14.8 µM (inactive). The GI50 (NCI-H226) was 22.8 µM (inactive), the GI50 (SW-620) was 16.6 µM (inactive) and the GI50 (UACC-257) was 16.2 µM (inactive). The GI50 (SK-OV-3) was 35.3 µM (inactive), the GI50 (SK-MEL-28) was 16.1 µM (inactive) and the GI50 (HOP-18) was 26.5 µM (inactive). The GI50 (A498) was 22 µM (inactive), the GI50 (COLO 205) was 11.3 µM (inactive) and the GI50 (HCT-15) was 15.6 µM. The GI50 (HT-29) was 13.1 µM (inactive), the GI50 (A549) was 35.2 µM (inactive) and the GI50 (NCI-H460) was 27.9 µM (inactive). The GI50 (HOP-92) was 24.3 µM (inactive), the GI50 (M14) was 15.2 µM (inactive) and the GI50 (UO-31) was 14.5 µM (inactive). The GI50 (K562) was 10.2 µM (inactive), the GI50 (KM12) was 21.9 µM (inactive) and the GI50 (EKVX) was 88.5 µM (inactive). The GI50 (SK-MEL-2) was 16.1 µM (inactive), the GI50 (NCI-H23) was 51.2 µM (inactive) and the GI50 (HL-60) was 13.4 µM (inactive). For the same compound, the GI50 (LOX IMVI) was 17.4 µM (inactive), the GI50 (CAKI-1) was 21.7 µM (inactive) and the GI50 (SF-539) was 16.3 µM (inactive). The GI50 (SK-MEL-5) was 15.7 µM (inactive), the GI50 (Malme-3M) was 19.5 µM (inactive) and the GI50 (SF-268) was 14.2 µM (inactive). For the same compound, the GI50 (MOLT-4) was 14.2 µM (inactive), the GI50 (KM-20L2) was 13.1 µM (inactive) and the GI50 (SNB-19) was 40.6 µM (inactive). The GI50 (786-0) was 13.5 µM (inactive), the GI50 (U-251) was 16.9 µM (inactive) and the GI50 (RPMI-8226) was 16.9 µM (inactive). For the same compound, the GI50 (IGROV-1) was 23.1 µM (inactive), the GI50 (HCT-116) was 10.3 µM (inactive) and the GI50 (SF-295) was 26.4 µM (inactive). For the same compound, the GI50 (RXF 393) was 11.9 µM (inactive), the GI50 (DMS-114) was 16.3 µM (inactive) and the GI50 (HOP-62) was 24.3 µM (inactive). For the same compound, the GI50 (M19-MEL) was 21 µM (inactive), the GI50 (NCI-H522) was 12 µM (inactive) and the GI50 (ACHN) was 16.5 µM (inactive). The GI50 (TK-10) was 52.7 µM (inactive), the GI50 (SN12C) was 25.8 µM (inactive) and the GI50 (OVCAR-4) was 20.5 µM (inactive). For the same compound, the GI50 (OVCAR-8) was 87.3 µM (inactive).
